For 16 compounds, IC50 results are on record in patent publication US20250368627A1, “PYRAZOLESULFONAMIDES AS ANTITUMOR AGENTS” (Peloton Therapeutics, Inc., a fully owned subsidiary of …, priority 2019, published 2025).

The target of the assay is T1, DDB1DB/DCAF15 and RBM39 R1R2 complex (Homo sapiens, UniProt Q14498+Q66K64).
T1 construct: Amino acids 150 to 331 of RBM39 were cloned into pGEX4T3; GST (from vector pGEX4T3); TEV cleavage site (N); made in house; host or cells: DDB1DB/His-DCAF15: baculovirus/Sf9 co-expression; RBM39 R1R2: E. coli (pGEX4T3)
Put plainly: DCAF15 RBM39 Complex Formation Assay (FRET). The note with it: FRET ratio Em 665/Em 615, incubated overnight at 4° C. In kind it is binding. From the text: LANCE Eu-W1024 Anti-6×His and SureLight Allophycocyanin-anti-FLAG antibodies were purchased from Perkin Elmer. Human DDB1DB and His-tagged DCAF15 were co-expressed in baculovirus/sf9 system. While full length DDB1 contains three 7-bladed propellers termed A, B, and C, DDB1DB has only propeller A (amino acids 1 to 395) and C (amino acids 709-1140). The His-tagged DCAF15 contains six histidine residues directly preceding the DCAF15 sequence without any linker. An RBM39 fragment containing RRM1 and RRM2 was expressed in E. coli. Amino acids 150 to 331 of RBM39 were cloned into pGEX4T3 with an N-terminal TEV cleavage site and a C-terminal FLAG tag.
A compound of the present disclosure in DMSO (2 μL) was transferred to a 384-well assay plate. Compound was added in 14 points, 3-fold serial dilution (1 μM to 0.6 pico molar) in DMSO. […] FRET assay buffer (25 mM HEPES, pH 7.5, 100 mM NaCl, […], 0.5 mM TCEP, 0.005% Tween-20, 0.2 nM Eu—W1024 Anti-6×His, 50 nM SureLight Allophycocyanin-anti-FLAG, 20 nM DDB1DB/DCAF15, 50 nM RBM39 R1R2) was added and the resulting solution was incubated overnight at 4° C. The plate was placed in a plate reader (Spark 10) with excitation at 1=340 nm and emissions monitored at 1=665 nm and 1=615 nm, and the FRET ratio (Em 665/Em 615) was determined. Low signal controls containing no compound and high signal controls containing 10 mM indisulam were measured for each plate.
EC50 values were calculated using Dotmatics template equation for 4-parameter fit. Results are expressed as % formation using the following equation: […]

T1 sequence (Q66K64 whole entry, the tested form may be a part): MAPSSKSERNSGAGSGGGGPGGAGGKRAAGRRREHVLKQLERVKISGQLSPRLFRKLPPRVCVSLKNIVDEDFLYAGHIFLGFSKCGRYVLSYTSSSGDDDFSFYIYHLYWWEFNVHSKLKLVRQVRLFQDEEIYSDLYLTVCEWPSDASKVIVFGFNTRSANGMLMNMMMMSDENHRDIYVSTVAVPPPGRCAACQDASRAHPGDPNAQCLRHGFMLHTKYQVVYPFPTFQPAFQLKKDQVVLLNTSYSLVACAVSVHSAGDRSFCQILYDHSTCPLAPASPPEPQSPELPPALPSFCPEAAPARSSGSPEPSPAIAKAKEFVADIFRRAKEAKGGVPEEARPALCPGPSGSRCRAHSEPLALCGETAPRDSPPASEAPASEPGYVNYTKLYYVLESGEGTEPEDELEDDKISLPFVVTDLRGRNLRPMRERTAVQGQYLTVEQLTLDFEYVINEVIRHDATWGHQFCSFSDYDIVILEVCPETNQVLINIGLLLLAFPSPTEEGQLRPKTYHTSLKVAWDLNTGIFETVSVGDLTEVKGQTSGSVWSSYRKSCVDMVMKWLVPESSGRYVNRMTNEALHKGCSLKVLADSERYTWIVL
T1 sequence (Q14498 150-331): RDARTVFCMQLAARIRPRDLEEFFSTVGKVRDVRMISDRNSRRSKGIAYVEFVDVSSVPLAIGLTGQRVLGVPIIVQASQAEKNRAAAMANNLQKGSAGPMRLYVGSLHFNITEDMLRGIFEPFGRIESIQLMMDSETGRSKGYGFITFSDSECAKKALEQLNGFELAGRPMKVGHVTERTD
T1 sequence (Q16531 with tags, fused parts or gaps DEL396-708 partner): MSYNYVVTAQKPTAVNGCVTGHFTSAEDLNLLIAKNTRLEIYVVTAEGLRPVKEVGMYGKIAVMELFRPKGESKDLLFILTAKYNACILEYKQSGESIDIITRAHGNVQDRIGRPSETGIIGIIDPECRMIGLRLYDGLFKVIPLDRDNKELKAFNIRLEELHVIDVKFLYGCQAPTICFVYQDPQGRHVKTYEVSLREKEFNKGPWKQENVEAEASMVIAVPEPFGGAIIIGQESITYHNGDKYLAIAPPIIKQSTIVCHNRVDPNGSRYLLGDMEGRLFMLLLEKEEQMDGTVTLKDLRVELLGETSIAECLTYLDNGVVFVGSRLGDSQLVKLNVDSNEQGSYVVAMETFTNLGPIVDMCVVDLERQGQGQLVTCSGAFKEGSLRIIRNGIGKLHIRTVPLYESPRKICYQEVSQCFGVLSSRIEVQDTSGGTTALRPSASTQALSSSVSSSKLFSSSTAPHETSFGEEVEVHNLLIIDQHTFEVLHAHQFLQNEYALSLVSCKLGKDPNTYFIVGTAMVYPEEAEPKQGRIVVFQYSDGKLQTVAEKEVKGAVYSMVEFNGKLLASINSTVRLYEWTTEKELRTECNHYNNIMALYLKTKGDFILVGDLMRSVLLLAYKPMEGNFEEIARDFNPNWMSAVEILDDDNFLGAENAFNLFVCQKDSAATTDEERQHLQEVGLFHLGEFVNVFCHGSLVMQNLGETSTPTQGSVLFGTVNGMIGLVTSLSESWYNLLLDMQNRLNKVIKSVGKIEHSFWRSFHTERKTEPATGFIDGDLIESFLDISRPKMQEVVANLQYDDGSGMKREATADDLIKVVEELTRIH

Usually IC50 stands for the midpoint of a concentration-inhibition curve. For the compound `Cc1nn(C)c(C)c1S(=O)(=O)Nc1cccc2c(Cl)c[nH]c12` [Compound 2, N-(3-chloro-1H-indol-7-yl)-1,3,5-trimethyl-pyrazole-4-sulfonamide], the IC50 is greater than 1 µM.

With `CCn1cc(S(=O)(=O)Nc2cccc3c(Cl)c[nH]c23)cn1` [Compound 4, N-(3-chloro-1H-indol-7-yl)-1-ethyl-pyrazole-4-sulfonamide], the 50% inhibitory concentration (IC50) was less than 0.25 µM.

`Cc1nn(C)cc1S(=O)(=O)Nc1cccc2c(Cl)c[nH]c12` [Compound 5, N-(3-chloro-1H-indol-7-yl)-1,3-dimethyl-pyrazole-4-sulfonamide]: the half-inhibitory concentration (IC50) was 0.25 to 1 µM.

As for `O=S(=O)(Nc1cccc2c(Cl)c[nH]c12)c1cnn(C2CCOC2)c1` (stereo not shown) [Compound 8, N-(3-chloro-1H-indol-7-yl)-1-tetrahydrofuran-3-yl-pyrazole-4-sulfonamide], the IC50 is less than 0.25 µM.

For `O=S(=O)(Nc1cccc2c(Cl)c[nH]c12)c1cn[nH]c1` [Compound 10, N-(3-chloro-1H-indol-7-yl)-1H-pyrazole-4-sulfonamide], the IC50 was less than 0.25 µM.

For `O=S(=O)(c1cnn(CC2CC2)c1)N(CC1CC1)c1cccc2c(Cl)c[nH]c12` [Compound 48, N-(3-chloro-1H-indol-7-yl)-N,1-bis(cyclopropylmethyl)pyrazole-4-sulfonamide], the IC50 was greater than 1 µM.

In the case of `COCCN(c1cccc2c(Cl)c[nH]c12)S(=O)(=O)c1cnn(CCOC)c1` [Compound 50, N-(3-chloro-1H-indol-7-yl)-N,1-bis(2-methoxyethyl)pyrazole-4-sulfonamide], the half-maximal inhibitory concentration (IC50) was greater than 1 µM.

For the compound `Cn1cc(S(=O)(=O)Nc2ccc(F)c3cc[nH]c23)cn1` [Compound 55, N-(4-fluoro-1H-indol-7-yl)-1-methyl-pyrazole-4-sulfonamide], the IC50 is greater than 1 µM.

Turning to `O=S1(=O)CC(n2cc(S(=O)(=O)Nc3cccc4c(Cl)c[nH]c34)cn2)C1` [Compound 58, N-(3-chloro-1H-indol-7-yl)-1-(1,1-dioxothietan-3-yl)pyrazole-4-sulfonamide], the half-maximal inhibitory concentration (IC50) was greater than 1 µM.

As to `Cc1ccc(NS(=O)(=O)c2cnn(C)c2C#N)c2[nH]cc(C#N)c12` [Compound 131, 5-cyano-N-(3-cyano-4-methyl-1H-indol-7-yl)-1-methyl-pyrazole-4-sulfonamide], the IC50 lay within 0.25 to 1 µM.

As for `Cn1ncc(S(=O)(=O)Nc2ccc(Cl)c3c(C#N)c[nH]c23)c1C#N` [Compound 132, N-(4-chloro-3-cyano-1H-indol-7-yl)-5-cyano-1-methyl-pyrazole-4-sulfonamide], the half-inhibitory concentration (IC50) was in the range of 0.25 to 1 µM.

In the case of `N#Cc1n[nH]c2c(NS(=O)(=O)c3cnn([C@H](CO)CF)c3)ccc(Cl)c12` [Compound 310, N-(4-chloro-3-cyano-1H-indazol-7-yl)-1-[(1R)-1-(fluoromethyl)-2-hydroxy-ethyl]pyrazole-4-sulfonamide], the IC50 was less than 0.25 µM.

As to `Cc1ccc(NS(=O)(=O)c2cnn([C@H](CO)CF)c2)c2[nH]cc(C#N)c12` [Compound 313, N-(3-cyano-4-methyl-1H-indol-7-yl)-1-[(1R)-1-(fluoromethyl)-2-hydroxy-ethyl]pyrazole-4-sulfonamide], the concentration for half-maximal inhibition (IC50) was less than 0.25 µM.

As for `Cc1ccc(NS(=O)(=O)c2cnn([C@H](CO)CF)c2)c2[nH]nc(C#N)c12` [Compound 314, N-(3-cyano-4-methyl-1H-indazol-7-yl)-1-[(1R)-1-(fluoromethyl)-2-hydroxy-ethyl]pyrazole-4-sulfonamide], the IC50 is less than 0.25 µM.

Turning to `Cc1ccc(NS(=O)(=O)c2cnn(C(C)(C)CO)c2N)c2[nH]cc(C#N)c12` [Compound 315, 5-amino-N-(3-cyano-4-methyl-1H-indol-7-yl)-1-(2-hydroxy-1,1-dimethyl-ethyl)pyrazole-4-sulfonamide], the 50% inhibitory concentration (IC50) is less than 0.25 µM.

Consider `CC(C)(CO)n1ncc(S(=O)(=O)Nc2ccc(Cl)c3c(C#N)c[nH]c23)c1N` [Compound 316, 5-amino-N-(4-chloro-3-cyano-1H-indol-7-yl)-1-(2-hydroxy-1,1-dimethyl-ethyl)pyrazole-4-sulfonamide], for which the 50% inhibitory concentration (IC50) is less than 0.25 µM.
